Assay results published in publication PMC8689225, “Cardiac ryanodine receptor N-terminal region biosensors identify novel inhibitors via FRET-based high-throughput screening” (The Journal of Biological Chemistry, 2021).

Experiments:
RyR2 = molecular target: T1, RyR2 (Mus musculus, UniProt E9Q401); experiment: Ca2+ sparks in saponin-permeabilized ventricular cardiomyocytes; type: cell-based
T1 construct: endogenous in cells; host or cells: ventricular cardiomyocytes of male C57BL/6J mice, saponin-permeabilized
T1 sequence (E9Q401 whole entry): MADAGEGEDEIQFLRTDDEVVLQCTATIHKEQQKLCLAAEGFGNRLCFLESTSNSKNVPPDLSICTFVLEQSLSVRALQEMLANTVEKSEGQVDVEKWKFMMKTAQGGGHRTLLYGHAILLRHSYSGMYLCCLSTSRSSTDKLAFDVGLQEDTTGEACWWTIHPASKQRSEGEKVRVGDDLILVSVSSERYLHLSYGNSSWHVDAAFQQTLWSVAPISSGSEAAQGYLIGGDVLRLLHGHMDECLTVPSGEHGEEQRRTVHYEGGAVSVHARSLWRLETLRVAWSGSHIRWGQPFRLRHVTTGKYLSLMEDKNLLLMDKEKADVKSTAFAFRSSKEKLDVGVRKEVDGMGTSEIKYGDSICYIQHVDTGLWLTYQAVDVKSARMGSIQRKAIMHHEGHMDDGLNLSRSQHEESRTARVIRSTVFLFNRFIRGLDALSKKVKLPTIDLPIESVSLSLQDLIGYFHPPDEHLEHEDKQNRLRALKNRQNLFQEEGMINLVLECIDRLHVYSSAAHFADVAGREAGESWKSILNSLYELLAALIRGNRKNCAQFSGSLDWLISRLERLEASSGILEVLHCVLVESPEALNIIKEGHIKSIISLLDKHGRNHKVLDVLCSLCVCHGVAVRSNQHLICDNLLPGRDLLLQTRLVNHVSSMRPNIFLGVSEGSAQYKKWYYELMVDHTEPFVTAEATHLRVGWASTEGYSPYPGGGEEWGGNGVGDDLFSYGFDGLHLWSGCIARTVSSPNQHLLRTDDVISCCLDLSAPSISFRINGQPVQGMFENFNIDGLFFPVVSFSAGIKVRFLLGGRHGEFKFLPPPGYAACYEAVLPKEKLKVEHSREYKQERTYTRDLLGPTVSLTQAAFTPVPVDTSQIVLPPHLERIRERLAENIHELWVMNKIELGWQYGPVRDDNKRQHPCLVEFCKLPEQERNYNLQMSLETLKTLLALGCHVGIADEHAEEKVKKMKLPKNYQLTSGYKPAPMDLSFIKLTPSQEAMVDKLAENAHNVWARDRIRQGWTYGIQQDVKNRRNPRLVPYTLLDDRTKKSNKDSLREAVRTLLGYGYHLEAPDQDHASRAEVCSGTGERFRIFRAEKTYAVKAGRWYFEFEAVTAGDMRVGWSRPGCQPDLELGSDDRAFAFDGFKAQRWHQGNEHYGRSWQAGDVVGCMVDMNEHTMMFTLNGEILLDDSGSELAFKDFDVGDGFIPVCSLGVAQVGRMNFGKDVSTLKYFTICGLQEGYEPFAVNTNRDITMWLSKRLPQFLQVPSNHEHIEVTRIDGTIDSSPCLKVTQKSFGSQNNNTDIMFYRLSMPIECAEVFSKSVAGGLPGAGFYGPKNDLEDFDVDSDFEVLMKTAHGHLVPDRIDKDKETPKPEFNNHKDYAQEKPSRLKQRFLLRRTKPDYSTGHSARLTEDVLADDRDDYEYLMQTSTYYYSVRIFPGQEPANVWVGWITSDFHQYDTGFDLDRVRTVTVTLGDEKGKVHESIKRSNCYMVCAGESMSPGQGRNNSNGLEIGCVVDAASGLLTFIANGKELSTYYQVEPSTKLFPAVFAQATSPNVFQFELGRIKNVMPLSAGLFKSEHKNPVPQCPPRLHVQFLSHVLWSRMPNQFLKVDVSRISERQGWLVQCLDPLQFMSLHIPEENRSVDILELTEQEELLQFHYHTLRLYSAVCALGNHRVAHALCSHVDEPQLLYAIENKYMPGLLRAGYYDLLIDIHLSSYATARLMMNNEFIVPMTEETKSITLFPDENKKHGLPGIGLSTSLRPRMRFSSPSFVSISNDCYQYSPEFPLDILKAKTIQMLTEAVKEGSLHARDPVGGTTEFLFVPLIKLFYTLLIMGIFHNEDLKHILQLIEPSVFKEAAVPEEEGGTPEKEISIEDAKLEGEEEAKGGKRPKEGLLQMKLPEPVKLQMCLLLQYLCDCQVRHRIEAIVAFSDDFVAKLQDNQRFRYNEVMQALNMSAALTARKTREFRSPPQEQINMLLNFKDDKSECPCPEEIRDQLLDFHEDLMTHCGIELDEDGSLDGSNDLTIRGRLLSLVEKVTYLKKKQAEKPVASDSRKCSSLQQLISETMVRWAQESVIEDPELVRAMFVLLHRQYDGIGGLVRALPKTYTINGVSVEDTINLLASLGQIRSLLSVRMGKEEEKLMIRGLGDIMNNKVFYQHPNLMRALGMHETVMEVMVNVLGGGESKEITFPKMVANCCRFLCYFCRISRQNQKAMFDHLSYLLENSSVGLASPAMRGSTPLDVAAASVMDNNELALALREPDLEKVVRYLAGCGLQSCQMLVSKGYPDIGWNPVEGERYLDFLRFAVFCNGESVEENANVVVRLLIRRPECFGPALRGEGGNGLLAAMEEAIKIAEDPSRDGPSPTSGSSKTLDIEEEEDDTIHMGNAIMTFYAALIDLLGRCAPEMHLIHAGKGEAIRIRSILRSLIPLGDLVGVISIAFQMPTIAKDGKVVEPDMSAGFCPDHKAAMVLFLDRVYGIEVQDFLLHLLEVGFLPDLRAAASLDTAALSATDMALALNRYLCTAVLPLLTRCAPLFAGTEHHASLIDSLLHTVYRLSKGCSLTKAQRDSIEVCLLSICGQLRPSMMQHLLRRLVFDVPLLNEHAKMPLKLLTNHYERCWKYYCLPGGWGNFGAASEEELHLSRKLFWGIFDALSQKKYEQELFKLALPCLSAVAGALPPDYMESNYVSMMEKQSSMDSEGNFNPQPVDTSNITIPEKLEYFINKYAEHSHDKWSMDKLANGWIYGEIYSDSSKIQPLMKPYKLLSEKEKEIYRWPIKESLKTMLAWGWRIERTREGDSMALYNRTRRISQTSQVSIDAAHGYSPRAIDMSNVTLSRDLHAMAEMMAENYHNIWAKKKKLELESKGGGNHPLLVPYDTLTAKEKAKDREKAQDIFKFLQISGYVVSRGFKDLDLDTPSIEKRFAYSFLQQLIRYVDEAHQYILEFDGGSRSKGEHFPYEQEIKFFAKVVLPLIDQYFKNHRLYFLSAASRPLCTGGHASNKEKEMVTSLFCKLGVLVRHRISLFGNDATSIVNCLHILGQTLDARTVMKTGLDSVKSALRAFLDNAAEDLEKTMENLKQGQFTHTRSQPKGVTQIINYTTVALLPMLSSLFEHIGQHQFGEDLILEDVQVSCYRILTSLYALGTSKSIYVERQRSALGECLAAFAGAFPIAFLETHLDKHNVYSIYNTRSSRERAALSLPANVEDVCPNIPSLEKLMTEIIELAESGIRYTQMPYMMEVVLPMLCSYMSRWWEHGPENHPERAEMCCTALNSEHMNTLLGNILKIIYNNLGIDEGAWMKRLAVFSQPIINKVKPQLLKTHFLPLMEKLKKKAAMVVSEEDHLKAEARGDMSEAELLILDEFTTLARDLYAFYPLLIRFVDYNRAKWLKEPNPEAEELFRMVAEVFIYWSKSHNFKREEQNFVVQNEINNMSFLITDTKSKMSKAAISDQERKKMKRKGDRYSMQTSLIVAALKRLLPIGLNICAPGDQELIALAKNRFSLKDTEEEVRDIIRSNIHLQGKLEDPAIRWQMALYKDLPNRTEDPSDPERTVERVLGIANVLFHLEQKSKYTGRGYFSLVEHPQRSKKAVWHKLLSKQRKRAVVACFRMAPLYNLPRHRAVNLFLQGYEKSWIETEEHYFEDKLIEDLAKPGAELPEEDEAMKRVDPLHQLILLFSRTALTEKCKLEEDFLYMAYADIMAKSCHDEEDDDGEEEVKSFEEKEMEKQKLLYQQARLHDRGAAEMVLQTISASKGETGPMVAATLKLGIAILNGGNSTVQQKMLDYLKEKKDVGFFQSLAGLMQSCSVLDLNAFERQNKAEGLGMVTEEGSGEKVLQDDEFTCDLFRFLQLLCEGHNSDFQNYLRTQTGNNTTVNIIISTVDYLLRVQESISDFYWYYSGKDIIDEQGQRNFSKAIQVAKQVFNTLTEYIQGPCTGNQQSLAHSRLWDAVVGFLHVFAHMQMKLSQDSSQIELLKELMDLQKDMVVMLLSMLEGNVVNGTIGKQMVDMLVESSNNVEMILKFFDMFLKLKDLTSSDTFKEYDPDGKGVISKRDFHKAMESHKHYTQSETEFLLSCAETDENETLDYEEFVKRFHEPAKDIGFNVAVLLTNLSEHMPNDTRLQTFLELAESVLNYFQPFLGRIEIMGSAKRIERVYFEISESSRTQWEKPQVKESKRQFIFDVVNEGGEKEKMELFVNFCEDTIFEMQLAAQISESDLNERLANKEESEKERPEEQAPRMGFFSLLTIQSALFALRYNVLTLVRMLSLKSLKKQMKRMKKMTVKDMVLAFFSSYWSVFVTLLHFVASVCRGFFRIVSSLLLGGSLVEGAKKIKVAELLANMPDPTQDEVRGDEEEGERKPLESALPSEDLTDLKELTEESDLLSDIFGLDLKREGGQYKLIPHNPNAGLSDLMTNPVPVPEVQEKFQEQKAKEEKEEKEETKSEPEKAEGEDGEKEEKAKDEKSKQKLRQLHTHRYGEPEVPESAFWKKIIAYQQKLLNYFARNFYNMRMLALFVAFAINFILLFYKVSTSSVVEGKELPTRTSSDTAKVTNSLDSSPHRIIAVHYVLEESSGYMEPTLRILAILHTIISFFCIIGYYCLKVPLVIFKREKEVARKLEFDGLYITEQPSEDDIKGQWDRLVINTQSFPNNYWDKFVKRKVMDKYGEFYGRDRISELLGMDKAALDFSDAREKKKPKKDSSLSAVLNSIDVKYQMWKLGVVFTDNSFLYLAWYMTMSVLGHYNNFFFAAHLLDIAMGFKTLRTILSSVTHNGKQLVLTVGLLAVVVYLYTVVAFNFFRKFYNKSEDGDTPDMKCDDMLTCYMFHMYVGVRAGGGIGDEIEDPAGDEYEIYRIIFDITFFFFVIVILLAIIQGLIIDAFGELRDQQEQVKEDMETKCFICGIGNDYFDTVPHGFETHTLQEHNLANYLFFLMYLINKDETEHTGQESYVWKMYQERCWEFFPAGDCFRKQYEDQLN
Procedure: Mouse ventricular cardiomyocytes were isolated enzymatically from hearts of male C57BL/6J mouse (10–12 weeks old, Jackson Laboratory) as previously described with minor modifications ([66]). Briefly, mice were injected with heparin (500 U/kg body weight) and anesthetized with isoflurane (2 to 5%) to a verified deep surgical plane, whereupon the heart was excised, resulting in euthanasia by exsanguination. Hearts were excised and retrogradely perfused with constant flow on a Langendorff apparatus (37 °C) with Ca^2+-free normal Tyrode’s solution, gassed with 100% O2. Collagenase type II (Worthington Biochemical Co) and protease type XIV (Sigma-Aldrich) were used for enzymatic digestion. Ventricular cardiomyocytes were then mechanically dissociated and filtered through a nylon mesh and allowed to sediment in Tyrode’s solution. The [Ca^2+] of the Tyrode’s solution was then raised to 0.5 mM in stepwise fashion, and cardiomyocytes were kept at room temperature in this solution until use. All animal handling and laboratory procedures were in accordance with the approved protocols of the University of California, Davis Institutional Animal Care and Use Committee conforming to the Guide for the Care and Use of Laboratory Animals published by the US National Institutes of Health (eighth edition, 2011).
Ca^2+ activity was imaged via confocal microscopy (Bio-Rad, Radiance 2100, 40× objective) in the line scan mode (166 lines/s; ex 488 nm, em >505 nm). Ca^2+ sparks were recorded from ventricular cardiomyocytes permeabilized with saponin (50 μg/ml) for 1 min in internal solution containing (in mM) 10 HEPES, 1 EGTA, 1 free MgCl2 (with free [Ca^2+] adjusted to 50 nM using MaxChelator), 120 K-aspartate, 10 reduced glutathione, 5 ATP, 5 phosphocreatine di-Na, creatine phosphokinase 5 U/ml, and dextran (MW: 40,000) 8% at pH 7.20. Cardiomyocytes were immediately washed with saponin-free internal solution and then superfused with internal solution (50 nM Ca^2+free) containing the Ca^2+-sensitive indicator, Fluo-4 pentapotassium salt (10 μM, Invitrogen). Ca^2+ spark parameters were analyzed over a 10 s period from each line scan recording. Ca^2+ transients and diastolic Ca^2+ release events were recorded from intact ventricular cardiomyocytes loaded for 30 min at room temperature with Fluo-4 AM (10 μM, Invitrogen) and Pluronic F-127 (0.02%, Invitrogen) followed by wash and de-esterification for 30 min in Tyrode’s solution containing (in mM) NaCl 140, KCl 4, CaCl2 1.8, MgCl2 1, HEPES 5, Na-HEPES 5, and glucose 5.5 at pH 7.40. To evoke Ca^2+ transients, intact cardiomyocytes were paced at 1 Hz in a field stimulation chamber (Warner Instruments) at room temperature. Ca^2+ activity was assessed in paired fashion before and after incubating cardiomyocytes with fusidic acid (FA) for 6 min at each concentration. ImageJ was used for image processing and analysis, and Ca^2+ sparks were analyzed using the SparkMaster plugin ([67]). Chemical reagents were purchased from Sigma-Aldrich unless indicated otherwise.
Statistical analyses were performed using GraphPad Prism 9. Normality was verified using the D’Agostino & Pearson test. Repeated measures (at different FA concentrations) one-way ANOVA with Geisser–Greenhouse correction followed by the Dunnett’s multiple comparison post-hoc test was used for normally distributed data to determine individual differences in matched responses. […]

[1] = test system: intact mouse ventricular cardiomyocytes; experiment: Ca2+ transients in intact ventricular cardiomyocytes paced at 1 Hz; type: cell-based
Procedure: Mouse ventricular cardiomyocytes were isolated enzymatically from hearts of male C57BL/6J mouse (10–12 weeks old, Jackson Laboratory) as previously described with minor modifications ([66]). Briefly, mice were injected with heparin (500 U/kg body weight) and anesthetized with isoflurane (2 to 5%) to a verified deep surgical plane, whereupon the heart was excised, resulting in euthanasia by exsanguination. Hearts were excised and retrogradely perfused with constant flow on a Langendorff apparatus (37 °C) with Ca^2+-free normal Tyrode’s solution, gassed with 100% O2. Collagenase type II (Worthington Biochemical Co) and protease type XIV (Sigma-Aldrich) were used for enzymatic digestion. […]
Ca^2+ activity was imaged via confocal microscopy (Bio-Rad, Radiance 2100, 40× objective) in the line scan mode (166 lines/s; ex 488 nm, em >505 nm). Ca^2+ sparks were recorded from ventricular cardiomyocytes permeabilized with saponin (50 μg/ml) for 1 min in internal solution containing (in mM) 10 HEPES, 1 EGTA, 1 free MgCl2 (with free [Ca^2+] adjusted to 50 nM using MaxChelator), 120 K-aspartate, 10 reduced glutathione, 5 ATP, 5 phosphocreatine di-Na, creatine phosphokinase 5 U/ml, and dextran (MW: 40,000) 8% at pH 7.20. […] Ca^2+ spark parameters were analyzed over a 10 s period from each line scan recording. […]

NTR of mouse RyR2 = molecular target: T2, NTR of mouse RyR2 (Mus musculus, UniProt E9Q401); experiment: Surface plasmon resonance with isolated NTR (His-MBP tag); type: binding
T2 construct: The NTR of mouse RyR2 (residues 1–547) was cloned and expressed as previously described; made in house; host or cells: Escherichia coli Rosetta (DE3) pLacI
T2 sequence (E9Q401 1-547): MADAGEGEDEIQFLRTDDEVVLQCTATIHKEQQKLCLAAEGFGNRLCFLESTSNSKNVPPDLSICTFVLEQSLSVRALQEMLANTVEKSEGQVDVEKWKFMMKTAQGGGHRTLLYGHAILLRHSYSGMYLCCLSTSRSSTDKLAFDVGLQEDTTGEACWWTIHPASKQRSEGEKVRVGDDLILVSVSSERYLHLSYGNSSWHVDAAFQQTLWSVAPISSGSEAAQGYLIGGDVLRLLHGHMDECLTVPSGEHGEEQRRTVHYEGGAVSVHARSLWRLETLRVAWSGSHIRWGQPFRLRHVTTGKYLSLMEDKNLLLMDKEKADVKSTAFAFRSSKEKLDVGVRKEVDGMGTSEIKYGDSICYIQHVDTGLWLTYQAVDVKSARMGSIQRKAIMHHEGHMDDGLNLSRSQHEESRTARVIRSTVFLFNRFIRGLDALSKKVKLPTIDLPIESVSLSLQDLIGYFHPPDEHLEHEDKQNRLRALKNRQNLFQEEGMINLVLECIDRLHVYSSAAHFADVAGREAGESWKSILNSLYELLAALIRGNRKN
Procedure: The SPR experiments were performed using a BIACORE S200 (GE Healthcare) equipped with a NTA sensor chip. NTR with His and MBP tags (>90% pure based on SDS-PAGE) was immobilized using affinity of the His tag to the sensor surface. The surfaces of the sensor chip were activated with 0.5 mM Ni^2+ solution at a flow rate of 10 μl/min. The NTR at a concentration of 30 μg/ml in 10 mM HEPES, 150 mM KCl, pH 7.4, was immobilized on flow cell 2; flow cell 1 was left blank to serve as a reference surface. To collect kinetic binding data, the hits in the running buffer (10 mM HEPES, 150 mM NaCl, 0.05% P20, pH 7.4, 1% DMSO) were injected over the two flow cells at concentrations of 1.5625, 3.125, 6.25, 12.5, 25, 50, and 100 μM at a flow rate of 30 μl/min and at a temperature of 25 °C. The complex was allowed to associate and dissociate for 60 and 60 s, respectively. The surfaces were regenerated with a 120 s injection of 350 mM EDTA. Data were collected at a rate of 1 Hz. The data were fit using the global data analysis option available within Biacore S200 Evaluation 1.0 software.

[2] = single-cycle kinetics, global analysis

## CC(=O)O[C@H]1C[C@@]2(C)[C@@H](C[C@@H](O)[C@H]3[C@@]4(C)CC[C@@H](O)[C@@H](C)[C@@H]4CC[C@@]32C)/C1=C(\CCC=C(C)C)C(=O)O [FA, (2Z)-2-[(3R,4S,5S,8S,9S,10S,11R,13R,14S,16S)-16-acetyloxy-3,11-dihydroxy-4,8,10,14-tetramethyl-2,3,4,5,6,7,9,11,12,13,15,16-dodecahydro-1H-cyclopenta[a]phenanthren-17-ylidene]-6-methylhept-5-enoic acid]
RyR2; 1 μM FA, p = 0.011
  Ca2+ spark signal mass relative to 0 nM FA: decreased significantly
RyR2; 10 μM FA, p = 0.001
  Ca2+ spark signal mass relative to 0 nM FA: decreased significantly
RyR2; [Ca2+]i 50 nM, 6 min exposures
  Ca2+ spark frequency over [FA] relative to 0 nM FA: did not detect significant differences
RyR2; increasing [FA], p = 0.0007
  Ca2+ spark signal mass, meancell slope: −0.336 F/F0 × μm × s/log10(μM)
RyR2; increasing [FA], p = 0.115
  Ca2+ spark frequency, meancell slope: −0.082 sparks/100 μm/s/log10(μM)
[1]; FA across all concentrations tested (0.01–10 μM), 6 min
  cardiomyocytes with arrhythmogenic Ca2+ events (total paired measures): 10 of 12
[1]; even at very low [FA] (0.01 μM), pacing 1 Hz
  Ca2+ transient amplitudes: some diminution
NTR of mouse RyR2; NTR with His-MBP tag
  KD (SPR): low micromolar
NTR of mouse RyR2; [2]
  KD (SPR), another component of heterogenous model fit: nanomolar
  KD (SPR), one component of heterogenous model fit: micromolar
